Experimental data: US7105470B1, “Herbicidal compositions for tolerant or resistant soybean crops” (Hoechst Schering AgrEvo GmbH, priority 1998, dated 2006)
Counter-ions that a name gives are not always drawn.

Experiments:
Format in all cases: in vivo
[1] = test system: Digitalis abscendens; test: Field trial with soybeans, herbicidal action; details: application middle-end of stocking, scoring 3 weeks after application
Procedure: (§1) Transgenic soybean plants with a resistance to one or more herbicides (A) together with typical weed plants were grown in the open on 2×5 m plots under natural field conditions; alternatively, weed infestation occurred naturally when the soybean plants were grown.
(§2) […] The damage to, and the development of, all aerial parts of the plants was recorded. Scoring was done on the basis of a percentage sale (100% action all plants destroyed; 50% action=50% of the plants and green parts of the plants destroyed; 0% action=no recognizable effect=like control plot. The mean of the score values of in each case 4 plots was calculated.

[2] = test system: Equisetum arvense; test: Field trial with soybeans, herbicidal action; details: 4–6 leaf stage, scoring 3 weeks after application
Procedure: as §1, §2

[3] = test system: Portulaca oleracea; test: Field trial with soybeans, herbicidal action; details: 8–10 leaf stage, scoring 32 days after application
Procedure: as §1, §2

[4] = test system: Abutilon theophrasti; test: Field trial with soybeans, herbicidal action; details: 4-leaf stage, scoring 42 days after application
Procedure: as §1
(§3) 2, 4, 6 and 8 weeks after the application, the herbicidal activity of the active substances or active substance mixtures was scored visually with reference to the treated plots in comparison to untreated control plots. The damage to, and the development of, all aerial parts of the plants was recorded. Scoring was done on the basis of a percentage sale (100% action all plants destroyed; 50% action=50% of the plants and green parts of the plants destroyed; 0% action=no recognizable effect=like control plot. The mean of the score values of in each case 4 plots was calculated.

[5] = test system: Eleusine indica; test: Field trial with soybeans, herbicidal action; details: 3-leaf stage, scoring 42 days after application
Procedure: as §1, §3

[6] = test system: Pharbitis purpureum; test: Field trial with soybeans, herbicidal action; details: 3-leaf stage, scoring 42 days after application
Procedure: as §1, §3

[7] = test system: Sorghum sudaneus; test: Field trial with soybeans, herbicidal action; details: 4-leaf stage, scoring 28 days after application
Procedure: as §1, §3

[8] = test system: Xanthium orientalis; test: Field trial with soybeans, herbicidal action; details: 5-leaf stage, scoring 28 days after application
Procedure: as §1, §3

[9] = test system: Soja LL (glufosinate-tolerant soybean culture); test: Field trial with soybeans, tolerance by crop plants
Procedure: as §1, §3

[10] = test system: Sida rombifolia; test: Field trial with soybeans, herbicidal action; details: 4-leaf stage, scoring 43 days after application
[11] = Table 8, 50 g of a.s./ha, 4-leaf stage, scoring 43 days after application

With `CP(=O)(O)CCC(N)C(=O)O` (centres unmarked) [(A1.2), glufosinate-monoammonium salt] the “Herbicidal action (%) against Digitalis abscendens” value ([1]; 1200 g of a.s./ha) was 36%, the “Herbicidal action (%) against Equisetum arvense” value ([2]; 400 g of a.s./ha) was 70% and the “Herbicidal action (%) against Portulaca oleracea” value ([3]; 250 g of a.s./ha) was 20%. The “Herbicidal action (%) against Portulaca oleracea” value ([3]; 500 g of a.s./ha) was 65%, the “Herbicidal action (%) against Abutilon theophrasti” value ([4]; 330 g of a.s./ha) was 45% and the “Herbicidal action (%) against Abutilon theophrasti” value ([4]; 500 g of a.s./ha) was 95%. For the same compound, the “Herbicidal action (%) against Eleusine indica” value ([5]; 200 g of a.s./ha) was 40%, the “Herbicidal action (%) against Eleusine indica” value ([5]; 500 g of a.s./ha) was 80% and the “Herbicidal action (%) against Pharbitis purpureum” value ([6]; 200 g of a.s./ha) was 35%. For the same compound, the “Herbicidal action (%) against Pharbitis purpureum” value ([6]; 400 g of a.s./ha) was 72%, the “Herbicidal action (%) against Sorghum sudaneus” value ([7]; 300 g of a.s./ha) was 15% and the “Herbicidal action (%) against Sorghum sudaneus” value ([7]; 500 g of a.s./ha) was 65%. The “Herbicidal action (%) against Xanthium orientalis” value ([8]; 300 g of a.s./ha) was 96%, the “Herbicidal action (%) against Xanthium orientalis” value ([8]; 500 g of a.s./ha) was 98% and the “Herbicidal action (%) against Soja LL” value ([9]; Table 5, 250 g of a.s./ha, 8–10 leaf stage, scoring 32 days after application) was 0%. The “Herbicidal action (%) against Soja LL” value ([9]; Table 5, 500 g of a.s./ha, 8–10 leaf stage, scoring 32 days after application) was 0%, the “Herbicidal action (%) against Soja LL” value ([9]; Table 6, 200 g of a.s./ha, 3-leaf stage, scoring 42 days after application) was 0% and the “Herbicidal action (%) against Soja LL” value ([9]; Table 6, 500 g of a.s./ha, 3-leaf stage, scoring 42 days after application) was 0%. The “Herbicidal action (%) against Soja LL” value ([9]; Table 7, 200 g of a.s./ha, 3-leaf stage, scoring 42 days after application) was 0%, the “Herbicidal action (%) against Soja LL” value ([9]; Table 7, 400 g of a.s./ha, 3-leaf stage, scoring 42 days after application) was 0% and the “Herbicidal action (%) against Soja LL” value ([9]; Table 8, 150 g of a.s./ha, 4-leaf stage, scoring 43 days after application) was 0%. The “Herbicidal action (%) against Soja LL” value ([9]; Table 8, 300 g of a.s./ha, 4-leaf stage, scoring 43 days after application) was 0%, the “Herbicidal action (%) against Sida rombifolia” value ([10]; 150 g of a.s./ha) was 25% and the “Herbicidal action (%) against Sida rombifolia” value ([10]; 300 g of a.s./ha) was 65%.
With `CCc1cnc(C2=NC(C)(C(C)C)C(=O)N2)c(C(=O)O)c1` (centres unmarked) [(A3.2), imazethapyr] the “Herbicidal action (%) against Eleusine indica” value ([5]; 50 g of a.s./ha) was 27% and the “Herbicidal action (%) against Soja LL” value ([9]; in vivo) was 0%.
With `COCc1cnc(C2=NC(C)(C(C)C)C(=O)N2)c(C(=O)O)c1` (centres unmarked) [(A3.5), imazamox] the “Herbicidal action (%) against Pharbitis purpureum” value ([6]; 30 g of a.s./ha) was 40% and the “Herbicidal action (%) against Soja LL” value ([9]; Table 7, 30 g of a.s./ha, 3-leaf stage, scoring 42 days after application) was 0%.
`CCCN(CCC)c1c([N+](=O)[O-])cc(C(F)(F)F)cc1[N+](=O)[O-]` [(B1.1), trifluralin] was tested, and the “Herbicidal action (%) against Xanthium orientalis” value ([8]; 960 g of a.s./ha) was 0%.
With `CCc1cccc(C)c1N(C(=O)CCl)C(C)COC` (centres unmarked) [(B1.5), metolachlor] the “Herbicidal action (%) against Portulaca oleracea” value ([3]; 2240 g of a.s./ha) was 30% and the “Herbicidal action (%) against Soja LL” value ([9]; Table 5, 2240 g of a.s./ha, 8–10 leaf stage, scoring 32 days after application) was 0%.
`Cc1ccn2nc(S(=O)(=O)Nc3c(F)cccc3F)nc2n1` [(B1.6), flumetsulam] was tested, and the “Herbicidal action (%) against Abutilon theophrasti” value ([4]; 35 g of a.s./ha) was 52%.
For `COCC(C)N(C(=O)CCl)c1c(C)csc1C` (centres unmarked) [(B1.7), dimethenamid], the “Herbicidal action (%) against Abutilon theophrasti” value ([4]; 1500 g of a.s./ha) was 30%.
In the case of `CCc1cccc(CC)c1N(COC)C(=O)CCl` [(B1.8), alachlor], the “Herbicidal action (%) against Digitalis abscendens” value ([1]; 2580 g of a.s./ha) is reported as 48%.
For `CON(C)C(=O)Nc1ccc(Cl)c(Cl)c1` [(B1.9), linuron], the “Herbicidal action (%) against Sorghum sudaneus” value ([7]; 750 g of a.s./ha) was 15%.
`C#CCN1C(=O)COc2cc(F)c(N3C(=O)C4=C(CCCC4)C3=O)cc21` [(B1.15), flumioxazin] was tested, and the “Herbicidal action (%) against Portulaca oleracea” value ([3]; 100 g of a.s./ha) was 65%, the “Herbicidal action (%) against Pharbitis purpureum” value ([6]; 12.5 g of a.s./ha) was 30% and the “Herbicidal action (%) against Soja LL” value ([9]; Table 5, 100 g of a.s./ha, 8–10 leaf stage, scoring 32 days after application) was 0%. The “Herbicidal action (%) against Soja LL” value ([9]; Table 7, 12.5 g of a.s./ha, 3-leaf stage, scoring 42 days after application) was 0%.
`CC(C)N1C(=O)c2ccccc2NS1(=O)=O` [(B2.2), bentazone] was tested, and the “Herbicidal action (%) against Pharbitis purpureum” value ([6]; 480 g of a.s./ha) was 35% and the “Herbicidal action (%) against Soja LL” value ([9]; Table 7, 480 g of a.s./ha, 3-leaf stage, scoring 42 days after application) was 0%.
`COC(=O)c1sccc1S(=O)(=O)NC(=O)Nc1nc(C)nc(OC)n1` [(B2.3), thifensulfuron-methyl] was tested, and the “Herbicidal action (%) against Portulaca oleracea” value ([3]; 5 g of a.s./ha) was 45%, the “Herbicidal action (%) against Sorghum sudaneus” value ([7]; 15 g of a.s./ha) was 13% and the “Herbicidal action (%) against Soja LL” value ([9]; in vivo) was 3%.
`CCOC(=O)C(C)OC(=O)c1cc(Oc2ccc(C(F)(F)F)cc2Cl)ccc1[N+](=O)[O-]` (centres unmarked) [(B2.5), lactofen] was tested, and the “Herbicidal action (%) against Equisetum arvense” value ([2]; 150 g of a.s./ha) was 0%, the “Herbicidal action (%) against Equisetum arvense” value ([2]; 300 g of a.s./ha) was 0% and the “Herbicidal action (%) against Abutilon theophrasti” value ([4]; 2240 g of a.s./ha) was 20%.
`CCCCCOC(=O)COc1cc(N2C(=O)C3=C(CCCC3)C2=O)c(F)cc1Cl` [(B2.7), flumiclorac-pentyl] was tested, and the “Herbicidal action (%) against Soja LL” value [9, 11] was 0% and the “Herbicidal action (%) against Sida rombifolia” value ([10]; 50 g of a.s./ha) was 40%.
With `O=C(O)c1cc(Oc2ccc(C(F)(F)F)cc2Cl)ccc1[N+](=O)[O-]` [(B2.8), acifluorfen] the “Herbicidal action (%) against Sorghum sudaneus” value ([7]; 360 g of a.s./ha) was 15%.
`COc1cc(Cl)nc(NC(=O)NS(=O)(=O)c2ccccc2C(=O)O)n1` [(B2.11), chlorimuron] was tested, and the “Herbicidal action (%) against Eleusine indica” value ([5]; 12.5 g of a.s./ha) was 5% and the “Herbicidal action (%) against Soja LL” value ([9]; Table 6, 12.5 g of a.s./ha, 3-leaf stage, scoring 42 days after application) was 0%.
With `CCOc1nc(F)cc2nc(S(=O)(=O)Nc3c(Cl)cccc3C(=O)OC)nn12` [(B2.12), cloransulam-methyl] the “Herbicidal action (%) against Portulaca oleracea” value ([3]; 18 g of a.s./ha) was 73%, the “Herbicidal action (%) against Pharbitis purpureum” value ([6]; 40 g of a.s./ha) was 45% and the “Herbicidal action (%) against Soja LL” value ([9]; Table 5, 18 g of a.s./ha, 8–10 leaf stage, scoring 32 days after application) was 2%. The “Herbicidal action (%) against Soja LL” value ([9]; Table 7, 40 g of a.s./ha, 3-leaf stage, scoring 42 days after application) was 0%.
`Cc1cc(C)nc(NC(=O)NS(=O)(=O)c2ccccc2C(=O)OC2COC2)n1` [(B2.15), oxasulfuron] was tested, and the “Herbicidal action (%) against Soja LL” value [9, 11] was 0% and the “Herbicidal action (%) against Sida rombifolia” value ([10]; 50 g of a.s./ha) was 60%.
With `CCOC(=O)[C@@H](C)Oc1ccc(Oc2nc3ccc(Cl)cc3o2)cc1` [(B4.2), fenoxaprop-P-ethyl] the “Herbicidal action (%) against Eleusine indica” value ([5]; 25 g of a.s./ha) was 30%, the “Herbicidal action (%) against Eleusine indica” value ([5]; 50 g of a.s./ha) was 70% and the “Herbicidal action (%) against Soja LL” value ([9]; Table 6, 25 g of a.s./ha, 3-leaf stage, scoring 42 days after application) was 0%. For the same compound, the “Herbicidal action (%) against Soja LL” value ([9]; Table 6, 50 g of a.s./ha, 3-leaf stage, scoring 42 days after application) was 0%.
